According to patent US10106556B2, “Heterocyclic compound” (TAKEDA PHARMACEUTICAL COMPANY LIMITED, priority 2015, dated 2018):
One block for each molecule: values may come before it.

Target: T1, His-hMAGL (recombinant polyhistidine tagged human MAGL protein) (Homo sapiens, UniProt Q99685)
T1 construct: made in house; host or cells: E. coli BL21(DE3)
T1 sequence (Q99685 1-303): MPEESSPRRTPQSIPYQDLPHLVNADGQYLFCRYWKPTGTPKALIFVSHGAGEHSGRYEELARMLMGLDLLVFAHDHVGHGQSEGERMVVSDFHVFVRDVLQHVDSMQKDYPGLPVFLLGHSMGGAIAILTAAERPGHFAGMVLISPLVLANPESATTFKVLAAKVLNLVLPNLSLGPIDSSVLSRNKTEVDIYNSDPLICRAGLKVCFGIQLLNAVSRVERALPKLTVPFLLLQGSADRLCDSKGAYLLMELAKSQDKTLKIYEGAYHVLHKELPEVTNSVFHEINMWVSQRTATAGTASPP
Assay: Measurement of MAGL inhibitory activity (arachidonic acid production from 2-arachidonylglycerol, RapidFire-mass spectrometry)
Assay type: biochemical
Conditions: MAGL inhibitory rate at 10 μM test compound, 60 min preincubation with His-hMAGL, 2-arachidonylglycerol substrate, 10 min reaction at room temperature
Description: Furthermore, acetonitrile (50 μL) containing 3 μM arachidonic acid-d8 (Cayman Chemical Company) was added and the mixture was stirred.
The amount of arachidonic acid in the obtained enzyme reaction mixture was calculated by measuring by RapidFire-mass spectrometry and correcting by the amount of arachidonic acid-d8. High Throughput online solid phase extraction was performed using RapidFire 300™ system (Agilent Technologies, Inc.). Samples were loaded on SPE C4 cartridge (Agilent Technologies, Inc.) and desalted with 0.2 (v/v) % acetic acid (Wako Pure Chemical Industries, Ltd.) in ultrapure water/acetonitrile (70/30, v/v) at a flow rate of 1.5 mL/min, eluted at a flow rate of 0.5 mL/min with 0.2 (v/v) % acetic acid dissolved in acetonitrile/ultrapure water (90/10, v/v), and injected into the mass spectrometry part. The injection needle was washed with ultrapure water (500 millisecond) and acetonitrile (500 millisecond) to minimize carry-over. […] The RapidFire300 system was controlled by RapidFire UI software version 3.6 (Agilent Technologies, Inc.).
The mass spectrometry of the resultant product was performed using API4000™ triple quadrupole mass spectrometer (AB SCIEX) equipped with an electrospray ion sauce (TurboIon Spray™) in a negative selected reaction monitoring (SRM) mode. The conditions of SRM are shown below. The parameters of the instrument were optimized as follows: capillary temperature 600° C., ion spray voltage −4.5 kV, collision gas 8, curtain gas 15 psi, ion source gas 1 60 psi, ion source gas 2 60 psi. The mass spectrometer was controlled by Analyst™ software version 1.5.1 (AB SCIEX). The peak area integration was analyzed using RapidFire integrator software version 3.6 (Agilent Technologies, Inc.).
MAGL inhibitory rate (%) was calculated according to the following calculation formula. (1−(arachidonic acid production amount of test compound addition group−arachidonic acid production amount of enzyme−free group)÷(arachidonic acid production amount of test compound-free group−arachidonic acid production amount of enzyme-free group))×100

inhibition at 10 µM: 101%
SMILES: O=C1COc2cc(F)c(C(=O)N3CC(COc4cnc5c(c4)CCCO5)C3)cc2N1 [Example 279, 6-((3-((3,4-dihydro-2H-pyrano[2,3-b]pyridin-6-yloxy)methyl)azetidin-1-yl)carbonyl)-7-fluoro-2H-1,4-benzoxazin-3(4H)-one]

inhibition at 10 µM: 95%
SMILES: O=C1COc2cc(F)c(C(=O)N3CC(COCc4ccccc4)C3)cc2N1 [Example 271, 6-((3-((benzyloxy)methyl)azetidin-1-yl)carbonyl)-7-fluoro-2H-1,4-benzoxazin-3(4H)-one]

inhibition at 10 µM: 99%
SMILES: O=C1COc2cc(F)c(C(=O)N3CC(OCc4ccc(C(F)(F)F)c(F)c4)C3)cc2N1 [Example 351, 7-fluoro-6-((3-((3-fluoro-4-(trifluoromethyl)benzyl)oxy)azetidin-1-yl)carbonyl)-2H-1,4-benzoxazin-3(4H)-one]

inhibition at 10 µM: 100%
SMILES: O=C1COc2cc(F)c(C(=O)N3CC(COc4ccc(N5CC(F)C5)cc4Cl)C3)cc2N1 [Example 291, 6-((3-((2-chloro-4-(3-fluoroazetidin-1-yl)phenoxy)methyl)azetidin-1-yl)carbonyl)-7-fluoro-2H-1,4-benzoxazin-3(4H)-one]

inhibition at 10 µM: 101%
SMILES: CC1(COc2ccc(F)cc2Cl)CN(C(=O)c2cc3c(cc2F)OCC(=O)N3)C1 [Example 283, 6-((3-((2-chloro-4-fluorophenoxy)methyl)-3-methylazetidin-1-yl)carbonyl)-7-fluoro-2H-1,4-benzoxazin-3(4H)-one]

% inhibition (10 μM) (10 µM): 103%
SMILES: CC(Oc1ccc(F)c(F)c1)C1CN(C(=O)c2cc3c(cc2F)OCC(=O)N3)C1 (stereo not shown) [Example 313, 6-((3-(1-(3,4-difluorophenoxy)ethyl)azetidin-1-yl)carbonyl)-7-fluoro-2H-1,4-benzoxazin-3(4H)-one]

inhibition at 10 µM: 99%
SMILES: CC(Oc1ccc(F)cc1Cl)C1CN(C(=O)c2cc3c(cc2F)OCC(=O)N3)C1 (stereo not shown) [Example 297, 6-((3-(1-(2-chloro-4-fluorophenoxy)ethyl)azetidin-1-yl)carbonyl)-7-fluoro-2H-1,4-benzoxazin-3(4H)-one]

inhibition at 10 µM: 101%
SMILES: O=C1COc2cc(F)c(C(=O)N3CC(OCc4ccc(C(F)(F)F)cc4F)C3)cc2N1 [Example 345, 7-fluoro-6-((3-((2-fluoro-4-(trifluoromethyl)benzyl)oxy)azetidin-1-yl)carbonyl)-2H-1,4-benzoxazin-3(4H)-one]

inhibition at 10 µM: 98%
SMILES: O=C1COc2cc(F)c(C(=O)N3CCC(COc4ccccc4)CC3)cc2N1 [Example 285, 7-fluoro-6-((4-(phenoxymethyl)piperidin-1-yl)carbonyl)-2H-1,4-benzoxazin-3(4H)-one]

inhibition at 10 µM: 100%
SMILES: COc1ccc(COC2CN(C(=O)c3cc4c(cc3F)OCC(=O)N4)C2)cc1F [Example 348, 7-fluoro-6-((3-((3-fluoro-4-methoxybenzyl)oxy)azetidin-1-yl)carbonyl)-2H-1,4-benzoxazin-3(4H)-one]

Further lines, the molecule ahead of its results:

SMILES: Cc1nn(C)c(C)c1-c1ccc(OCC2CN(C(=O)c3cc4c(cc3F)OCC(=O)N4)C2)c(F)c1 [Example 251, 7-fluoro-6-((3-((2-fluoro-4-(1,3,5-trimethyl-1H-pyrazol-4-yl)phenoxy)methyl)azetidin-1-yl)carbonyl)-2H-1,4-benzoxazin-3(4H)-one]
inhibition at 10 µM: 100%

SMILES: O=C1COc2ncc(C(=O)N3CCC(COc4c(F)cccc4Cl)CC3)cc2N1 [Example 22, 7-((4-((2-chloro-6-fluorophenoxy)methyl)piperidin-1-yl)carbonyl)-1H-pyrido[2,3-b][1,4]oxazin-2(3H)-one]
inhibition at 10 µM: 95%

SMILES: O=C1COc2cc(F)c(C(=O)N3CC(COc4ccc(-c5cccnc5Cl)cc4F)C3)cc2N1 [Example 232, 6-((3-((4-(2-chloropyridin-3-yl)-2-fluorophenoxy)methyl)azetidin-1-yl)carbonyl)-7-fluoro-2H-1,4-benzoxazin-3(4H)-one]
inhibition at 10 µM: 99%

SMILES: O=C1COc2cc(F)c(C(=O)N3CC(COc4cccc(-c5ccccc5)c4)C3)cc2N1 [Example 110, 6-((3-((biphenyl-3-yloxy)methyl)azetidin-1-yl)carbonyl)-7-fluoro-2H-1,4-benzoxazin-3(4H)-one]
inhibition at 10 µM: 97%

SMILES: O=C1COc2cc(F)c(C(=O)N3CC(COc4ccc(Cl)cc4-c4ccc(F)nc4)C3)cc2N1 [Example 204, 6-((3-((4-chloro-2-(6-fluoropyridin-3-yl)phenoxy)methyl)azetidin-1-yl)carbonyl)-7-fluoro-2H-1,4-benzoxazin-3(4H)-one]
inhibition at 10 µM: 100%

SMILES: O=C1COc2ncc(C(=O)N3CCC(COc4ccccc4C(F)(F)F)CC3)cc2N1 [Example 19, 7-((4-((2-(trifluoromethyl)phenoxy)methyl)piperidin-1-yl)carbonyl)-1H-pyrido [2,3-b][1,4]oxazin-2(3H)-one]
inhibition at 10 µM: 100%

SMILES: O=C1COc2cc(F)c(C(=O)N3CC(COc4ccccc4)C3)cc2N1 [Example 140, 7-fluoro-6-((3-(phenoxymethyl)azetidin-1-yl)carbonyl)-2H-1,4-benzoxazin-3(4H)-one]
inhibition at 10 µM: 100%

SMILES: O=C1COc2cc(F)c(C(=O)N3CC(COc4ccc5ccccc5c4)C3)cc2N1 [Example 169, 7-fluoro-6-((3-((2-naphthyloxy)methyl)azetidin-1-yl)carbonyl)-2H-1,4-benzoxazin-3(4H)-one]
inhibition at 10 µM: 97%

SMILES: O=C1COc2cc(F)c(C(=O)N3CC(COc4ccc(-c5ccnc(Cl)c5)cc4F)C3)cc2N1 [Example 241, 6-((3-((4-(2-chloropyridin-4-yl)-2-fluorophenoxy)methyl)azetidin-1-yl)carbonyl)-7-fluoro-2H-1,4-benzoxazin-3(4H)-one]
inhibition at 10 µM: 101%

SMILES: O=C1COc2cc(F)c(C(=O)N3CC(COc4ccc(Br)cc4F)C3)cc2N1 [Example 194, 6-((3-((4-bromo-2-fluorophenoxy)methyl)azetidin-1-yl)carbonyl)-7-fluoro-2H-1,4-benzoxazin-3(4H)-one]
inhibition at 10 µM: 103%

SMILES: Cc1ccncc1-c1ccc(OCC2CN(C(=O)c3cc4c(cc3F)OCC(=O)N4)C2)c(F)c1 [Example 237, 7-fluoro-6-((3-((2-fluoro-4-(4-methylpyridin-3-yl)phenoxy)methyl)azetidin-1-yl)carbonyl)-2H-1,4-benzoxazin-3(4H)-one]
inhibition at 10 µM: 99%

SMILES: O=C1COc2cc(F)c(C(=O)N3CCC(COc4ccc(F)cc4Br)CC3)cc2N1 [Example 99, 6-((4-((2-bromo-4-fluorophenoxy)methyl)piperidin-1-yl)carbonyl)-7-fluoro-2H-1,4-benzoxazin-3(4H)-one]
inhibition at 10 µM: 99%

SMILES: O=C1COc2cc(Cl)c(C(=O)N3CCC(COc4ccc(F)cc4Cl)CC3)cc2N1 [Example 86, 7-chloro-6-((4-((2-chloro-4-fluorophenoxy)methyl)piperidin-1-yl)carbonyl)-2H-1,4-benzoxazin-3(4H)-one]
inhibition at 10 µM: 98%

SMILES: O=C1COc2cc(F)c(C(=O)N3CCC(COc4ccc(F)cc4Cl)CC3)cc2N1 [Example 66, 6-((4-((2-chloro-4-fluorophenoxy)methyl)piperidin-1-yl)carbonyl)-7-fluoro-2H-1,4-benzoxazin-3(4H)-one]
inhibition at 10 µM: 104%

SMILES: Cc1ccc(OCC2CN(C(=O)c3cc4c(cc3F)OCC(=O)N4)C2)c(C)c1 [Example 165, 6-((3-((2,4-dimethylphenoxy)methyl)azetidin-1-yl)carbonyl)-7-fluoro-2H-1,4-benzoxazin-3(4H)-one]
inhibition at 10 µM: 103%

SMILES: Cn1cccc1-c1cc(Cl)ccc1OCC1CN(C(=O)c2cc3c(cc2F)OCC(=O)N3)C1 [Example 219, 6-((3-((4-chloro-2-(1-methyl-1H-pyrrol-2-yl)phenoxy)methyl)azetidin-1-yl)carbonyl)-7-fluoro-2H-1,4-benzoxazin-3(4H)-one]
inhibition at 10 µM: 101%

SMILES: O=C1COc2cc(F)c(C(=O)N3CC(COc4ccc(F)cc4Cl)C3)cc2N1 [Example 77, 6-((3-((2-chloro-4-fluorophenoxy)methyl)azetidin-1-yl)carbonyl)-7-fluoro-2H-1,4-benzoxazin-3(4H)-one]
inhibition at 10 µM: 105%

SMILES: Cn1cccc1-c1ccc(OCC2CN(C(=O)c3cc4c(cc3F)OCC(=O)N4)C2)c(F)c1 [Example 255, 7-fluoro-6-((3-((2-fluoro-4-(1-methyl-1H-pyrrol-2-yl)phenoxy)methyl)azetidin-1-yl)carbonyl)-2H-1,4-benzoxazin-3(4H)-one]
inhibition at 10 µM: 102%
